From patent publication US8956999B2, “Herbicides” (Syngenta Limited, priority 2007, dated 2015)

Columns and labels:
Format in all cases: in vivo
[1] = test system: Avena fatua (AVEFA); test: Example B post-emergence herbicidal test, glasshouse; settings: 312 h, rate 250 g/ha, evaluated after 13 days, read-out: Post-Emergence Activity AVEFA (100=total damage to plant; 0=no damage to plant)
Description: (§1) Seeds of a variety of test species were sown in standard soil in pots. After cultivation for one day (pre-emergence) or after 8 days cultivation (post-emergence) under controlled conditions in a glasshouse (at 24/16° C., day/night; 14 hours light; 65% humidity), the plants were sprayed with an aqueous spray solution derived from the formulation of the technical active ingredient in acetone/water (50:50) solution containing 0.5% Tween 20 (polyoxyethelyene sorbitan monolaurate, CAS RN 9005-64-5). The test plants were then grown in a glasshouse under controlled conditions in a glasshouse (at 24/16° C., day/night; 14 hours light; 65% humidity) and watered twice daily. After 13 days for pre and post-emergence, the test was evaluated (100=total damage to plant; 0=no damage to plant). Test Plants: Alopecurus myosuroides (ALOMY), Avena fatua (AVEFA), Setaria faberi (SETFA), Echinochloa crus-galli (ECHCG), Solanum nigrum (SOLNI) and Amaranthus retoflexus (AMARE)

[2] = test system: Setaria faberi (SETFA); test: as above; settings: 312 h, rate 250 g/ha, evaluated after 13 days, read-out: Post-Emergence Activity SEFTA (100=total damage to plant; 0=no damage to plant)
Description: as §1

[3] = test system: Amaranthus retoflexus (AMARE); test: as above; settings: Amaranthus retroflexus, 312 h, rate 250 g/ha, evaluated after 13 days, read-out: Post-Emergence Activity AMARE (100=total damage to plant; 0=no damage to plant)
Description: as §1

[4] = test system: Echinochloa crus-galli (ECHCG); test: as above; settings: 312 h, rate 250 g/ha, evaluated after 13 days, read-out: Post-Emergence Activity ECHGG (100=total damage to plant; 0=no damage to plant)
Description: as §1

[5] = test system: Alopecurus myosuroides (ALOMY); test: as above; settings: 312 h, rate 250 g/ha, evaluated after 13 days, read-out: Post-Emergence Activity ALOMY (100=total damage to plant; 0=no damage to plant)
Description: as §1

[6] = test system: Avena fatua (AVEFA); test: Example B pre-emergence herbicidal test, glasshouse; settings: 312 h, rate 250 g/ha, evaluated after 13 days, 100=total damage to plant, 0=no damage to plant
Description: as §1

[7] = test system: Setaria faberi (SETFA); test: as above; settings: Setaria faberi, 312 h, rate 250 g/ha, evaluated after 13 days, 100=total damage to plant, 0=no damage to plant, read-out: Pre-Emergence Activity SEFTA
Description: as §1

[8] = test system: Amaranthus retoflexus (AMARE); test: as above; settings: Amaranthus retroflexus, 312 h, rate 250 g/ha, evaluated after 13 days, 100=total damage to plant, 0=no damage to plant
Description: as §1

[9] = test system: Echinochloa crus-galli (ECHCG); test: as above; settings: Echinochloa crus-galli, 312 h, rate 250 g/ha, evaluated after 13 days, 100=total damage to plant, 0=no damage to plant, read-out: Pre-Emergence Activity ECHGG
Description: as §1

[10] = test system: Alopecurus myosuroides (ALOMY); test: as above; settings: 312 h, rate 250 g/ha, evaluated after 13 days, 100=total damage to plant, 0=no damage to plant
Description: as §1

Question: `CC(=O)OC1=C(c2nc(-c3ccc(Br)cn3)sc2C)C(=O)C(C)(C)OC1(C)C` [Compound P3] was tested. Which pest or weed control at 250 g/ha [1] did it give?
Answer: The pest or weed control at 250 g/ha was 30%.

Question: And the pest or weed control at 250 g/ha [2]?
Answer: Its pest or weed control at 250 g/ha is 90%.

Question: And the pest or weed control at 250 g/ha [3]?
Answer: Its pest or weed control at 250 g/ha is 0%.

Question: And the pest or weed control at 250 g/ha [4]?
Answer: Its pest or weed control at 250 g/ha is 90%.

Question: And the pest or weed control at 250 g/ha [5]?
Answer: The pest or weed control at 250 g/ha was 50%.

Question: And the pest or weed control at 250 g/ha [6]?
Answer: The pest or weed control at 250 g/ha was 0%.

Question: And the pest or weed control at 250 g/ha [7]?
Answer: Its pest or weed control at 250 g/ha is 20%.

Question: What about the pest or weed control at 250 g/ha [8] of the same compound?
Answer: The pest or weed control at 250 g/ha was 0%.

Question: And the pest or weed control at 250 g/ha [9]?
Answer: The pest or weed control at 250 g/ha was 30%.

Question: And the pest or weed control at 250 g/ha [10]?
Answer: Its pest or weed control at 250 g/ha is 20%.

Question: Which results are given for `Cc1sc(-c2ccc(Br)cn2)nc1C1=C(OC(=O)C2CC2)C(C)(C)OC(C)(C)C1=O` [Compound P4]?
Answer: pest or weed control at 250 g/ha [1]: 0%; pest or weed control at 250 g/ha [2]: 90%; pest or weed control at 250 g/ha [3]: 0%; pest or weed control at 250 g/ha [4]: 90%; pest or weed control at 250 g/ha [5]: 40%; pest or weed control at 250 g/ha [6]: 0%; pest or weed control at 250 g/ha [7]: 20%; pest or weed control at 250 g/ha [8]: 0%; pest or weed control at 250 g/ha [9]: 10%; pest or weed control at 250 g/ha [10]: 0%

Question: `Cc1sc(-c2ccc(Br)cn2)nc1C1=C(OC(=O)C(C)(C)C)C(C)(C)OC(C)(C)C1=O` [Compound P5] was tested. Which pest or weed control at 250 g/ha [1] did it give?
Answer: The pest or weed control at 250 g/ha was 0%.

Question: And the pest or weed control at 250 g/ha [2]?
Answer: Its pest or weed control at 250 g/ha is 0%.

Question: And the pest or weed control at 250 g/ha [3]?
Answer: Its pest or weed control at 250 g/ha is 0%.

Question: And the pest or weed control at 250 g/ha [4]?
Answer: Its pest or weed control at 250 g/ha is 0%.

Question: And the pest or weed control at 250 g/ha [5]?
Answer: Its pest or weed control at 250 g/ha is 0%.

Question: And the pest or weed control at 250 g/ha [6]?
Answer: The pest or weed control at 250 g/ha was 0%.

Question: What about the pest or weed control at 250 g/ha [7] of the same compound?
Answer: Its pest or weed control at 250 g/ha is 0%.

Question: What about the pest or weed control at 250 g/ha [8] of the same compound?
Answer: Its pest or weed control at 250 g/ha is 0%.

Question: And the pest or weed control at 250 g/ha [9]?
Answer: Its pest or weed control at 250 g/ha is 0%.

Question: And the pest or weed control at 250 g/ha [10]?
Answer: The pest or weed control at 250 g/ha was 0%.

Question: `Cc1sc(-c2ccc(Cl)cc2)cc1C1C(=O)C(C)(C)C(=O)C(C)(C)C1=O` [Compound T5] was tested. Which pest or weed control at 250 g/ha [1] did it give?
Answer: The pest or weed control at 250 g/ha was 0%.

Question: And the pest or weed control at 250 g/ha [2]?
Answer: Its pest or weed control at 250 g/ha is 50%.

Question: And the pest or weed control at 250 g/ha [3]?
Answer: The pest or weed control at 250 g/ha was 0%.

Question: And the pest or weed control at 250 g/ha [4]?
Answer: The pest or weed control at 250 g/ha was 70%.

Question: What about the pest or weed control at 250 g/ha [5] of the same compound?
Answer: The pest or weed control at 250 g/ha was 40%.

Question: Which pest or weed control at 250 g/ha [1] does the source give for `Cc1sc(-c2ccc(F)cc2)cc1C1C(=O)C(C)(C)C(=O)C(C)(C)C1=O` [Compound T25] here?
Answer: The pest or weed control at 250 g/ha was 0%.

Question: What about the pest or weed control at 250 g/ha [2] of the same compound?
Answer: Its pest or weed control at 250 g/ha is 20%.

Question: And the pest or weed control at 250 g/ha [3]?
Answer: Its pest or weed control at 250 g/ha is 0%.

Question: And the pest or weed control at 250 g/ha [4]?
Answer: Its pest or weed control at 250 g/ha is 20%.

Question: What about the pest or weed control at 250 g/ha [5] of the same compound?
Answer: Its pest or weed control at 250 g/ha is 0%.

Question: Which pest or weed control at 250 g/ha [1] does the source give for `Cc1sc(-c2ccc(C(F)(F)F)cc2)cc1C1C(=O)C(C)(C)C(=O)C(C)(C)C1=O` [Compound T27] here?
Answer: The pest or weed control at 250 g/ha was 0%.

Question: And the pest or weed control at 250 g/ha [2]?
Answer: Its pest or weed control at 250 g/ha is 50%.

Question: And the pest or weed control at 250 g/ha [3]?
Answer: Its pest or weed control at 250 g/ha is 30%.

Question: And the pest or weed control at 250 g/ha [4]?
Answer: The pest or weed control at 250 g/ha was 30%.

Question: And the pest or weed control at 250 g/ha [5]?
Answer: Its pest or weed control at 250 g/ha is 20%.

Question: Which pest or weed control at 250 g/ha [6] does the source give for `Cc1cc(Cl)ccc1-c1nc(C2C(=O)C(C)(C)C(=O)C(C)(C)C2=O)c(C)s1` [Compound T44] here?
Answer: The pest or weed control at 250 g/ha was 0%.

Question: What about the pest or weed control at 250 g/ha [7] of the same compound?
Answer: The pest or weed control at 250 g/ha was 0%.

Question: And the pest or weed control at 250 g/ha [8]?
Answer: The pest or weed control at 250 g/ha was 0%.

Question: What about the pest or weed control at 250 g/ha [9] of the same compound?
Answer: The pest or weed control at 250 g/ha was 30%.

Question: And the pest or weed control at 250 g/ha [10]?
Answer: Its pest or weed control at 250 g/ha is 0%.

Question: Which pest or weed control at 250 g/ha [1] does the source give for `Cc1sc(-c2ccc(Cl)cc2Cl)nc1C1C(=O)C(C)(C)C(=O)C(C)(C)C1=O` [Compound T45] here?
Answer: The pest or weed control at 250 g/ha was 0%.

Question: And the pest or weed control at 250 g/ha [2]?
Answer: Its pest or weed control at 250 g/ha is 70%.

Question: And the pest or weed control at 250 g/ha [3]?
Answer: The pest or weed control at 250 g/ha was 0%.

Question: And the pest or weed control at 250 g/ha [4]?
Answer: The pest or weed control at 250 g/ha was 70%.

Question: What about the pest or weed control at 250 g/ha [5] of the same compound?
Answer: The pest or weed control at 250 g/ha was 30%.

Question: How did the pest or weed control at 250 g/ha [1] turn out when `CCc1sc(-c2cc(F)c(Cl)cc2Cl)nc1C1C(=O)C(C)(C)OC(C)(C)C1=O` [Compound T65] was run?
Answer: Its pest or weed control at 250 g/ha is 70%.

Question: And the pest or weed control at 250 g/ha [2]?
Answer: Its pest or weed control at 250 g/ha is 100%.

Question: What about the pest or weed control at 250 g/ha [3] of the same compound?
Answer: Its pest or weed control at 250 g/ha is 0%.

Question: And the pest or weed control at 250 g/ha [4]?
Answer: Its pest or weed control at 250 g/ha is 100%.

Question: And the pest or weed control at 250 g/ha [5]?
Answer: The pest or weed control at 250 g/ha was 90%.

Question: What does the source list for `Cc1nc(-c2ccc(Cl)cc2)sc1C1C(=O)C(C)(C)OC(C)(C)C1=O` [Compound T66]?
Answer: pest or weed control at 250 g/ha [1]: 40%; pest or weed control at 250 g/ha [2]: 80%; pest or weed control at 250 g/ha [3]: 0%; pest or weed control at 250 g/ha [4]: 90%; pest or weed control at 250 g/ha [5]: 70%

Question: With `CSc1ccc(-c2nc(C3C(=O)C(C)(C)OC(C)(C)C3=O)c(C)s2)cc1` [Compound T67] as the compound, how does the pest or weed control at 250 g/ha [1] read?
Answer: Its pest or weed control at 250 g/ha is 0%.

Question: And the pest or weed control at 250 g/ha [2]?
Answer: Its pest or weed control at 250 g/ha is 70%.

Question: And the pest or weed control at 250 g/ha [3]?
Answer: Its pest or weed control at 250 g/ha is 0%.

Question: What about the pest or weed control at 250 g/ha [4] of the same compound?
Answer: Its pest or weed control at 250 g/ha is 90%.

Question: And the pest or weed control at 250 g/ha [5]?
Answer: Its pest or weed control at 250 g/ha is 0%.
